Key:
Assay type in all cases: in vivo, Arabidopsis thaliana
[1] = tested on: Cesa1_P1010L, fpx2-2 mutant line; test: Greenhouse phytotox, pre-emergent treatment
Procedure: (§1) Additionally, M2 or M3 Arabidopsis plants are tested for improved tolerance to cellulose biosynthesis-inhibiting herbicides in greenhouse studies (e. g. with the following cellulose biosynthesis-inhibiting herbicides: 6-cyclopentyl-N4-(2,3,4,5,6-pentafluorophenyl)-1,3,5-triazine-2,4-diamine; 6-(1-fluoro-1-methyl-ethyl)-N4-(2,3,4,5,6-pentafluorophenyl)-1,3,5-triazine-2,4-diamine; N4-(4-chloro-3,5,6-trifluoro-2-pyridyl)-6-(1-fluoro-1-methyl-ethyl)-1,3,5-triazine-2,4-diamine; 6-(2,6-difluorophenyl)-N4-(2,3,5,6-tetrafluorophenyl)-1,3,5-triazine-2,4-diamine; N4-(4-bromo-2,3,5,6-tetrafluoro-phenyl)-6-(1-fluoro-1-methyl-ethyl)-1,3,5-triazine-2,4-diamine.

[2] = tested on: Cesa3_S983F, fpx1-3 mutant line; test: Greenhouse phytotox, pre-emergent treatment
Procedure: as §1

[3] = tested on: Cesa1_G1013R, fpx2-1 mutant line; test: Greenhouse phytotox, pre-emergent treatment
Procedure: as §1

[4] = tested on: Cesa3_S1040L, fpx1-1 mutant line; test: Greenhouse phytotox, pre-emergent treatment
Procedure: as §1

A. thaliana WT L. erecta = test: Greenhouse phytotox, pre-emergent treatment
Procedure: as §1

[5] = tested on: Cesa1_G1009D, fpx2-3 mutant line; test: Greenhouse phytotox, pre-emergent treatment
Procedure: as §1

[6] = tested on: Cesa3_S1037F, fpx1-2 mutant line; test: Greenhouse phytotox, pre-emergent treatment
Procedure: as §1

[7] = tested on: Arabidopsis mutant line Cesa3_S983F; test: Growth inhibition of Arabidopsis lines in 48-well plates, tolerance factor from IC50; settings: growth inhibition seven to ten days after seeding
From the text: (§2) For selection of cellulose biosynthesis inhibitor resistant plants EMS mutagenized seed populations of Arabidopsis thaliana are used. EMS mutagenized seed populations are either bought from Lehle Seeds (1102 South Industrial Blvd. Suite D, Round Rock, Texas USA) or are generated as described elsewhere (Heim D R, et. al. (1989) Plant Physiol. 90: 146-150). Causative mutations in CESA wildtype sequences (e.g. SEQ ID NO: 1 or 3) are identified as described by Scheible W R et. al. (2001, Proc. Natl. Acad. of Sci. 98: 10079-10084), McCourt et. al. (WO2013/142968) or with the use of next generation sequencing methods as described by Austin R S, et. al. (2011) Plant Journal 67: 715-725.
(§3) Selected Arabidopsis thaliana lines were assayed for improved resistance to azines like 6-cyclopentyl-N4-(2,3,4,5,6-pentafluorophenyl)-1,3,5-triazine-2,4-diamine; 6-(1-fluoro-1-methyl-ethyl)-N4-(2,3,4,5,6-pentafluorophenyl)-1,3,5-triazine-2,4-diamine; 6-cyclohexyl-N2-(2,3,4,5,6-pentafluorophenyl)-1,3,5-triazine-2,4-diamine; 6-(2,6-difluorophenyl)-N2-(2,3,5,6-tetrafluorophenyl)-1,3,5-triazine-2,4-diamine; N2-(4-chloro-3,5,6-trifluoro-2-pyridyl)-6-(1-fluoro-1-methyl-ethyl)-1,3,5-triazine-2,4-diamine in 48-well plates. Therefore, M2 or M3 seeds are surface sterilized by stirring for 5 min in ethanol+water (70+30 by volume), rinsing one time with ethanol+water (70+30 by volume) and two times with sterile, deionized water. The seeds are resuspended in 0.1% agar dissolved in water (w/v) Four to five seeds per well are plated on solid nutrient medium consisting of half-strength murashige skoog nutrient solution, pH 5.8 (Murashige and Skoog (1962) Physiologia Plantarum 15: 473-497). Compounds are dissolved in dimethylsulfoxid (DMSO) and added to the medium prior solidification (final DMSO concentration 0.1%). Multi well plates are incubated in a growth chamber at 22° C., 75% relative humidity and 110 μmol Phot*m^−2*s^−1 with 14:10 h light:dark photoperiod. Growth inhibition is evaluated seven to ten days after seeding in comparison to wild type plants. Tolerance factors are calculated based on IC50 values of growth inhibition of transformed versus non-transformed Arabidopsis plants (Table 3).

[8] = tested on: Arabidopsis mutant line Cesa1_G1009D; test: as above; settings: growth inhibition seven to ten days after seeding
From the text: as §2, §3

[9] = tested on: Arabidopsis mutant line Cesa3_S1037F; test: as above; settings: growth inhibition seven to ten days after seeding
From the text: as §2, §3

[10] = tested on: Arabidopsis mutant line Cesa1_P1010L; test: as above; settings: growth inhibition seven to ten days after seeding
From the text: as §2, §3

[11] = tested on: Arabidopsis mutant line Cesa3_S1040L; test: as above; settings: growth inhibition seven to ten days after seeding
From the text: as §2, §3

[12] = tested on: Arabidopsis mutant line Cesa1_G1013R; test: as above; settings: growth inhibition seven to ten days after seeding
From the text: as §2, §3

[13] = tested on: wildtype Arabidopsis plants; test: as above; settings: growth inhibition seven to ten days after seeding
From the text: as §2, §3

SMILES | Phytotox value on a scale from 0-100 (100 is 100% damage) ([1]; 0.25 g ai/ha) | Phytotox value on a scale from 0-100 (100 is 100% damage) ([1]; 0.98 g ai/ha) | Phytotox value on a scale from 0-100 (100 is 100% damage) ([1]; 3.91 g ai/ha) | Phytotox value on a scale from 0-100 (100 is 100% damage) ([2]; 0.25 g ai/ha) | Phytotox value on a scale from 0-100 (100 is 100% damage) ([2]; 0.98 g ai/ha) | Phytotox value on a scale from 0-100 (100 is 100% damage) ([2]; 3.91 g ai/ha) | Phytotox value on a scale from 0-100 (100 is 100% damage) ([3]; 0.25 g ai/ha) | Phytotox value on a scale from 0-100 (100 is 100% damage) ([3]; 0.98 g ai/ha) | Phytotox value on a scale from 0-100 (100 is 100% damage) ([3]; 3.91 g ai/ha) | Phytotox value on a scale from 0-100 (100 is 100% damage) ([4]; 0.25 g ai/ha) | Phytotox value on a scale from 0-100 (100 is 100% damage) ([4]; 0.98 g ai/ha) | Phytotox value on a scale from 0-100 (100 is 100% damage) ([4]; 3.91 g ai/ha) | Phytotox value on a scale from 0-100 (100 is 100% damage) (A. thaliana WT L. erecta; 0.25 g ai/ha) | Phytotox value on a scale from 0-100 (100 is 100% damage) (A. thaliana WT L. erecta; 0.98 g ai/ha) | Phytotox value on a scale from 0-100 (100 is 100% damage) (A. thaliana WT L. erecta; 3.91 g ai/ha) | Phytotox value on a scale from 0-100 (100 is 100% damage) ([5]; 0.25 g ai/ha) | Phytotox value on a scale from 0-100 (100 is 100% damage) ([5]; 0.98 g ai/ha) | Phytotox value on a scale from 0-100 (100 is 100% damage) ([5]; 3.91 g ai/ha) | Phytotox value on a scale from 0-100 (100 is 100% damage) ([6]; 0.25 g ai/ha) | Phytotox value on a scale from 0-100 (100 is 100% damage) ([6]; 0.98 g ai/ha) | also measured
CC(C)(F)c1nc(N)nc(Nc2c(F)c(F)c(Br)c(F)c2F)n1 [N4-(4-bromo-2,3,5,6-tetrafluoro-phenyl)-6-(1-fluoro-1-methyl-ethyl)-1,3,5-triazine-2,4-diamine] | 25 | 25 | 88 | 35 | 23 | 25 | 10 | 10 | 35 | 13 | 5 | 63 | 8 | 35 | 97 | 50 | 35 | 68 | 28 | 18 | Phytotox value on a scale from 0-100 (100 is 100% damage) ([1]; 15.63 g ai/ha): 99; Phytotox value on a scale from 0-100 (100 is 100% damage) ([2]; 15.63 g ai/ha): 45; Phytotox value on a scale from 0-100 (100 is 100% damage) ([3]; 15.63 g ai/ha): 73; Phytotox value on a scale from 0-100 (100 is 100% damage) ([4]; 15.63 g ai/ha): 93; Phytotox value on a scale from 0-100 (100 is 100% damage) (A. thaliana WT L. erecta; 15.63 g ai/ha): 100; Phytotox value on a scale from 0-100 (100 is 100% damage) ([5]; 15.63 g ai/ha): 99; Phytotox value on a scale from 0-100 (100 is 100% damage) ([6]; 3.91 g ai/ha): 33; Phytotox value on a scale from 0-100 (100 is 100% damage) ([6]; 15.63 g ai/ha): 30
Nc1nc(Nc2c(F)c(F)c(F)c(F)c2F)nc(C2CCCCC2)n1 [6-cyclohexyl-N2-(2,3,4,5,6-pentafluorophenyl)-1,3,5-triazine-2,4-diamine] | – | – | – | – | – | – | – | – | – | – | – | – | – | – | – | – | – | – | – | – | Relative tolerance rate (wildtype = 1.0) [7]: 1; Relative tolerance rate (wildtype = 1.0) [8]: 1; Relative tolerance rate (wildtype = 1.0) [9]: 1; Relative tolerance rate (wildtype = 1.0) [10]: 1; Relative tolerance rate (wildtype = 1.0) [11]: 10; Relative tolerance rate (wildtype = 1.0) [12]: 4; Relative tolerance rate (wildtype = 1.0) [13]: 1
CC(C)(F)c1nc(N)nc(Nc2nc(F)c(F)c(Cl)c2F)n1 [N2-(4-chloro-3,5,6-trifluoro-2-pyridyl)-6-(1-fluoro-1-methyl-ethyl)-1,3,5-triazine-2,4-diamine] | 25 | 78 | 98 | 55 | 48 | 13 | 50 | 70 | 80 | 15 | 78 | 53 | 60 | 83 | 99 | 43 | 93 | 99 | 15 | 25 | Relative tolerance rate (wildtype = 1.0) [7]: 4; Relative tolerance rate (wildtype = 1.0) [8]: 1; Relative tolerance rate (wildtype = 1.0) [9]: 10; Relative tolerance rate (wildtype = 1.0) [10]: 1; Relative tolerance rate (wildtype = 1.0) [11]: 4; Relative tolerance rate (wildtype = 1.0) [12]: 10; Relative tolerance rate (wildtype = 1.0) [13]: 1; Phytotox value on a scale from 0-100 (100 is 100% damage) ([1]; 0.0625 g ai/ha): 50; Phytotox value on a scale from 0-100 (100 is 100% damage) ([2]; 0.0625 g ai/ha): 23; Phytotox value on a scale from 0-100 (100 is 100% damage) ([3]; 0.0625 g ai/ha): 40; Phytotox value on a scale from 0-100 (100 is 100% damage) ([4]; 0.0625 g ai/ha): 13; Phytotox value on a scale from 0-100 (100 is 100% damage) (A. thaliana WT L. erecta; 0.0625 g ai/ha): 45; Phytotox value on a scale from 0-100 (100 is 100% damage) ([5]; 0.0625 g ai/ha): 30; Phytotox value on a scale from 0-100 (100 is 100% damage) ([6]; 0.0625 g ai/ha): 5; Phytotox value on a scale from 0-100 (100 is 100% damage) ([6]; 3.91 g ai/ha): 25
CC(C)(F)c1nc(N)nc(Nc2c(F)c(F)c(F)c(F)c2F)n1 [6-(1-fluoro-1-methyl-ethyl)-N4-(2,3,4,5,6-pentafluorophenyl)-1,3,5-triazine-2,4-diamine] | 50 | 99 | 100 | 45 | 75 | 98 | 65 | 63 | 97 | 65 | 75 | 98 | 78 | 100 | 100 | 78 | 97 | 100 | 20 | 30 | Relative tolerance rate (wildtype = 1.0) [7]: 1; Relative tolerance rate (wildtype = 1.0) [8]: 2; Relative tolerance rate (wildtype = 1.0) [9]: 4; Relative tolerance rate (wildtype = 1.0) [10]: 1; Relative tolerance rate (wildtype = 1.0) [11]: 2; Relative tolerance rate (wildtype = 1.0) [12]: 4; Relative tolerance rate (wildtype = 1.0) [13]: 1; Phytotox value on a scale from 0-100 (100 is 100% damage) ([1]; 0.0625 g ai/ha): 43; Phytotox value on a scale from 0-100 (100 is 100% damage) ([2]; 0.0625 g ai/ha): 78; Phytotox value on a scale from 0-100 (100 is 100% damage) ([3]; 0.0625 g ai/ha): 13; Phytotox value on a scale from 0-100 (100 is 100% damage) ([4]; 0.0625 g ai/ha): 20; Phytotox value on a scale from 0-100 (100 is 100% damage) (A. thaliana WT L. erecta; 0.0625 g ai/ha): 38; Phytotox value on a scale from 0-100 (100 is 100% damage) ([5]; 0.0625 g ai/ha): 65; Phytotox value on a scale from 0-100 (100 is 100% damage) ([6]; 0.0625 g ai/ha): 10; Phytotox value on a scale from 0-100 (100 is 100% damage) ([6]; 3.91 g ai/ha): 80

— patent US12480137B2, “Plants having increased tolerance to herbicides” (BASF SE, priority 2014, dated 2025)
